Reference: ChEMBL document CHEMBL3994622, “Design and synthesis of new RAF kinase-inhibiting antiproliferative quinoline derivatives. Part 2: Diarylurea derivatives” (Eur J Med Chem, 2017)

Assays:
Type in all cases: functional
CCRF-CEM = experiment: Growth inhibition of human CCRF-CEM cells incubated for 48 hrs by sulforhodamine B assay
HL-60(TB) = experiment: Growth inhibition of human HL-60(TB) cells incubated for 48 hrs by sulforhodamine B assay; conditions: HL-60, 48 h
MOLT-4 = experiment: Growth inhibition of human MOLT4 cells incubated for 48 hrs by sulforhodamine B assay; conditions: MOLT-4, 48 h
RPMI-8226 = experiment: Growth inhibition of human RPMI8226 cells incubated for 48 hrs by sulforhodamine B assay; conditions: RPMI-8226, 48 h
SR = experiment: Growth inhibition of human SR cells incubated for 48 hrs by sulforhodamine B assay
A549 = experiment: Growth inhibition of human A549/ATCC cells incubated for 48 hrs by sulforhodamine B assay; conditions: A549, 48 h
EKVX = experiment: Growth inhibition of human EKVX cells incubated for 48 hrs by sulforhodamine B assay
HOP-62 = experiment: Growth inhibition of human HOP62 cells incubated for 48 hrs by sulforhodamine B assay; conditions: HOP-62, 48 h
NCI-H226 = experiment: Growth inhibition of human NCI-H226 cells incubated for 48 hrs by sulforhodamine B assay; conditions: NCI-H226, 48 h
NCI-H23 = experiment: Growth inhibition of human NCI-H23 cells incubated for 48 hrs by sulforhodamine B assay; conditions: NCI-H23, 48 h
NCI-H322M = experiment: Growth inhibition of human NCI-H322M cells incubated for 48 hrs by sulforhodamine B assay
NCI-H460 = experiment: Growth inhibition of human NCI-H460 cells incubated for 48 hrs by sulforhodamine B assay; conditions: NCI-H460, 48 h
NCI-H522 = experiment: Growth inhibition of human NCI-H522 cells incubated for 48 hrs by sulforhodamine B assay; conditions: NCI-H522, 48 h
COLO 205 = experiment: Growth inhibition of human COLO205 cells incubated for 48 hrs by sulforhodamine B assay; conditions: COLO 205, 48 h
HCT-116 = experiment: Growth inhibition of human HCT116 cells incubated for 48 hrs by sulforhodamine B assay; conditions: HCT-116, 48 h
HCT-15 = experiment: Growth inhibition of human HCT15 cells incubated for 48 hrs by sulforhodamine B assay; conditions: HCT-15, 48 h
HT-29 = experiment: Growth inhibition of human HT-29 cells incubated for 48 hrs by sulforhodamine B assay; conditions: HT-29, 48 h
KM12 = experiment: Growth inhibition of human KM12 cells incubated for 48 hrs by sulforhodamine B assay; conditions: KM12, 48 h
SW-620 = experiment: Growth inhibition of human SW620 cells incubated for 48 hrs by sulforhodamine B assay; conditions: SW-620, 48 h
SF-268 = experiment: Growth inhibition of human SF268 cells incubated for 48 hrs by sulforhodamine B assay; conditions: SF-268, 48 h
SF-295 = experiment: Growth inhibition of human SF295 cells incubated for 48 hrs by sulforhodamine B assay; conditions: SF-295, 48 h
SF-539 = experiment: Growth inhibition of human SF539 cells incubated for 48 hrs by sulforhodamine B assay; conditions: SF-539, 48 h
SNB-19 = experiment: Growth inhibition of human SNB19 cells incubated for 48 hrs by sulforhodamine B assay; conditions: SNB-19, 48 h
SNB-75 = experiment: Growth inhibition of human SNB75 cells incubated for 48 hrs by sulforhodamine B assay; conditions: SNB-75, 48 h
U-251 = experiment: Growth inhibition of human U251 cells incubated for 48 hrs by sulforhodamine B assay; conditions: U-251, 48 h
LOX IMVI = experiment: Growth inhibition of human LOXIMVI cells incubated for 48 hrs by sulforhodamine B assay
Malme-3M = experiment: Growth inhibition of human MALME-3M cells incubated for 48 hrs by sulforhodamine B assay
M14 = experiment: Growth inhibition of human M14 cells incubated for 48 hrs by sulforhodamine B assay; conditions: M14, 48 h
MDA-MB-435 = experiment: Growth inhibition of human MDA-MB-435 cells incubated for 48 hrs by sulforhodamine B assay; conditions: MDA-MB-435, 48 h
SK-MEL-2 = experiment: Growth inhibition of human SK-MEL-2 cells incubated for 48 hrs by sulforhodamine B assay; conditions: SK-MEL-2, 48 h
SK-MEL-28 = experiment: Growth inhibition of human SK-MEL-28 cells incubated for 48 hrs by sulforhodamine B assay; conditions: SK-MEL-28, 48 h
SK-MEL-5 = experiment: Growth inhibition of human SK-MEL-5 cells incubated for 48 hrs by sulforhodamine B assay; conditions: SK-MEL-5, 48 h
UACC-257 = experiment: Growth inhibition of human UACC257 cells incubated for 48 hrs by sulforhodamine B assay; conditions: UACC-257, 48 h
UACC-62 = experiment: Growth inhibition of human UACC62 cells incubated for 48 hrs by sulforhodamine B assay; conditions: UACC-62, 48 h
IGROV-1 = experiment: Growth inhibition of human IGROV1 cells incubated for 48 hrs by sulforhodamine B assay; conditions: IGROV-1, 48 h
OVCAR-3 = experiment: Growth inhibition of human OVCAR3 cells incubated for 48 hrs by sulforhodamine B assay; conditions: OVCAR-3, 48 h
OVCAR-4 = experiment: Growth inhibition of human OVCAR4 cells incubated for 48 hrs by sulforhodamine B assay; conditions: OVCAR-4, 48 h
OVCAR-5 = experiment: Growth inhibition of human OVCAR5 cells incubated for 48 hrs by sulforhodamine B assay; conditions: OVCAR-5, 48 h
OVCAR-8 = experiment: Growth inhibition of human OVCAR8 cells incubated for 48 hrs by sulforhodamine B assay; conditions: OVCAR-8, 48 h
SK-OV-3 = experiment: Growth inhibition of human SKOV3 cells incubated for 48 hrs by sulforhodamine B assay; conditions: SK-OV-3, 48 h
786-0 = experiment: Growth inhibition of human 786-0 cells incubated for 48 hrs by sulforhodamine B assay; conditions: 786-0, 48 h
A498 = experiment: Growth inhibition of human A498 cells incubated for 48 hrs by sulforhodamine B assay; conditions: A498, 48 h
ACHN = experiment: Growth inhibition of human ACHN cells incubated for 48 hrs by sulforhodamine B assay
CAKI-1 = experiment: Growth inhibition of human Caki1 cells incubated for 48 hrs by sulforhodamine B assay; conditions: CAKI-1, 48 h
RXF 393 = experiment: Growth inhibition of human RXF393 cells incubated for 48 hrs by sulforhodamine B assay; conditions: RXF 393, 48 h
SN12C = experiment: Growth inhibition of human SN12C cells incubated for 48 hrs by sulforhodamine B assay
TK-10 = experiment: Growth inhibition of human TK10 cells incubated for 48 hrs by sulforhodamine B assay; conditions: TK-10, 48 h
UO-31 = experiment: Growth inhibition of human UO31 cells incubated for 48 hrs by sulforhodamine B assay; conditions: UO-31, 48 h
PC-3 = experiment: Growth inhibition of human PC3 cells incubated for 48 hrs by sulforhodamine B assay; conditions: PC-3, 48 h
DU-145 = experiment: Growth inhibition of human DU145 cells incubated for 48 hrs by sulforhodamine B assay; conditions: DU-145, 48 h
MDA-MB-231 = experiment: Growth inhibition of human MDA-MB-231 cells incubated for 48 hrs by sulforhodamine B assay; conditions: MDA-MB-231, 48 h
Hs-578T = experiment: Growth inhibition of human Hs 578T cells incubated for 48 hrs by sulforhodamine B assay
BT-549 = experiment: Growth inhibition of human BT549 cells incubated for 48 hrs by sulforhodamine B assay; conditions: BT-549, 48 h
T47D = experiment: Growth inhibition of human T47D cells incubated for 48 hrs by sulforhodamine B assay
MDA-MB-468 = experiment: Growth inhibition of human MDA-MB-468 cells incubated for 48 hrs by sulforhodamine B assay; conditions: MDA-MB-468, 48 h

Question: Which results are given for `CNC(=O)c1cc(Oc2ccc(NC(=O)Nc3ccc(Cl)c(C(F)(F)F)c3)cc2)ccn1` [SORAFENIB]?
Answer: GI50 (CCRF-CEM): 2 µM; TGI (CCRF-CEM): 5.01 µM; TGI (HL-60(TB)): 100 µM; TGI (MOLT-4): 100 µM; TGI (RPMI-8226): 3.16 µM; TGI (SR): 63.1 µM; TGI (A549): 7.94 µM; TGI (EKVX): 19.9 µM; GI50 (HOP-62): 2 µM; TGI (HOP-62): 3.16 µM; GI50 (NCI-H226): 2 µM; TGI (NCI-H226): 3.16 µM; GI50 (NCI-H23): 2 µM; TGI (NCI-H322M): 5.01 µM; TGI (NCI-H460): 5.01 µM; GI50 (NCI-H522): 2 µM; TGI (NCI-H522): 5.01 µM; GI50 (COLO 205): 2 µM; TGI (COLO 205): 3.16 µM; TGI (HCT-116): 2.51 µM; TGI (HCT-15): 3.16 µM; GI50 (HT-29): 2 µM; TGI (HT-29): 5.01 µM; TGI (KM12): 2.51 µM; TGI (SW-620): 5.01 µM; TGI (SF-268): 3.98 µM; TGI (SF-295): 6.31 µM; TGI (SF-539): 2.51 µM; TGI (SNB-19): 3.98 µM; TGI (SNB-75): 3.98 µM; GI50 (U-251): 2 µM; TGI (U-251): 3.16 µM; TGI (LOX IMVI): 2.51 µM; GI50 (Malme-3M): 2 µM; TGI (Malme-3M): 39.8 µM; GI50 (M14): 2 µM; TGI (M14): 3.16 µM; TGI (MDA-MB-435): 5.01 µM; GI50 (SK-MEL-2): 2 µM; TGI (SK-MEL-2): 6.31 µM; TGI (SK-MEL-28): 2.51 µM; TGI (SK-MEL-5): 2.51 µM; GI50 (UACC-257): 2 µM; TGI (UACC-62): 2.51 µM; TGI (IGROV-1): 10 µM; TGI (OVCAR-3): 3.98 µM; TGI (OVCAR-4): 25.1 µM; TGI (OVCAR-5): 6.31 µM; GI50 (OVCAR-8): 3.16 µM; TGI (OVCAR-8): 12.6 µM; TGI (SK-OV-3): 5.01 µM; TGI (786-0): 5.01 µM; TGI (A498): 3.16 µM; TGI (ACHN): 10 µM; TGI (CAKI-1): 12.6 µM; TGI (RXF 393): 5.01 µM; TGI (SN12C): 3.16 µM; TGI (TK-10): 10 µM; TGI (UO-31): 6.31 µM; GI50 (PC-3): 2 µM; TGI (PC-3): 5.01 µM; TGI (DU-145): 7.94 µM; TGI (MDA-MB-231): 3.16 µM; TGI (Hs-578T): 3.98 µM; TGI (BT-549): 3.98 µM; TGI (T47D): 5.01 µM; GI50 (MDA-MB-468): 2 µM; TGI (MDA-MB-468): 5.01 µM
